Structures can show the parent of a compound that is named as a salt.
| melting point | Compound |
| --- | --- |
| 53 to 56 °C | CCN(CC)CCc1c[nH]c2ccc(NS(=O)(=O)c3sc4ccc(Cl)cc4c3C)cc12 [24e] |
| 255 to 257 °C | CCN(CC)CCc1c[nH]c2ccc(NS(=O)(=O)c3cccc4ccccc34)cc12.Cl [Example 3c, Hydrochloride N-[3-(2-diethylaminoethyl)-1H-indol-5-yl]naphthalene-1-sulphonamide] |
| 179 to 181 °C | CN(C)CCn1ccc2cc(NS(=O)(=O)c3cccc4ccccc34)ccc21 [Example 3e, N-[1-(2-dimethylaminoethyl)-1H-indole-5-yl]-naphthalene-1-sulfonamide] |
| 139 to 142 °C | CN(C)CCn1ccc2ccc(NS(=O)(=O)c3cccc4ccccc34)cc21 [Example 3f, N-[1-(2-Dimethylaminoethyl)-1H-indol-6-yl]-naphthalene-1-sulfonamide] |
| 137 to 140 °C | CN(C)CCn1ccc2cccc(NS(=O)(=O)c3ccc(-c4ccccc4)cc3)c21 [Example 3g, N-[1-(2-dimethylaminoethyl)-1H-indole-7-yl]-4-phenylbenzenesulfonamide] |
| 75 °C (dec.) | CN1CC=C(c2cn(S(=O)(=O)C3CCCCC3)c3ccc(N)cc23)CC1 [Example 3h, 5-Amino-1-cyclohexanesulfonyl-3-(1-methyl-1,2,3,6-tetrahydropyridine-4-yl)-1H-indole] |
| 168 to 170 °C | CCN(CC)CCc1c[nH]c2ccc(NS(=O)(=O)c3cc(Cl)cc(Cl)c3)cc12 [Example 4c, N-[3-(2-diethylaminoethyl)-1H-indol-5-yl]-3,5-dichlorobenzenesulphonamide] |
| 137 to 140 °C | CN(C)CCn1ccc2c(NS(=O)(=O)c3ccc(-c4ccccc4)cc3)cccc21 [Example 4d, N-[1-(2-dimethylaminoethyl)-1H-indole-4-yl]-4 phenylbenzenesulfonamide] |
| 172 to 174 °C | CN(C)CCn1ccc2cc(NS(=O)(=O)c3cccc4c(Cl)cccc34)ccc21 [Example 4e, N-[1-(2-dimethylaminoethyl)-1H-indole-5-yl]-5-chloronaphthalene-1-sulfonamide] |
| 73 to 76 °C | CN(C)CCn1ccc2cccc(NS(=O)(=O)c3c(Cl)nc4sccn34)c21 [Example 4g, N-[1-(2-dimethylaminoethyl)-1H-indole-7-yl]-6-chloroimidazo[2,1-b]thiazole-5-sulfonamide] |
| 263 °C (dec.) | Cl.O=S(=O)(C1CCCCC1)n1cc(C2=CCN3CCCC3C2)c2cc(F)ccc21 (stereo not drawn) [Example 4h, 1-Cyclohexanesulfonyl-5-fluoro-3-(1,2,3,5,8,8a-hexahydro-indolizine-7-yl)-1H-indole hydrochloride] |
| 161 to 163 °C | CCN(CC)CCc1c[nH]c2ccc(NS(=O)(=O)c3ccc(-c4ccccc4)cc3)cc12 [Example 5c, N-[3-(2-diethylaminoethyl)-1H-indol-5-yl]-4-phenylbenzenesulphonamide] |
| 82 to 85 °C | Cc1c(S(=O)(=O)Nc2cccc3ccn(CCN4CCCC4)c23)sc2ccc(Cl)cc12 [Example 5g, 5-chloro-3-methyl-N-(1-(2-(pyrrolidin-1-yl)ethyl)-1H-indol-7-yl)-benzo[b]thiophen-2-sulfonamide] |
| 180 to 181 °C | CCN(CC)CCc1c[nH]c2ccc(NS(=O)(=O)c3ccc(Cl)s3)cc12 [Example 6c, N-[3-(2-diethylaminoethyl)-1H-indol-5-yl]-5-chlorothiophene-2-sulphonamide] |
| 161 to 164 °C | CN(C)CCn1ccc2cc(NS(=O)(=O)c3cccc4cccnc34)ccc21 [Example 6e, N-[1-(2-dimethylaminoethyl)-1H-indole-5-yl]-quinoline-8-sulfonamide] |
| 196 to 199 °C | O=S(=O)(Nc1cccc2ccn(CCN3CCCC3)c12)c1cccc2ccccc12 [Example 6g, N-(1-(2-(pyrrolidin-1-yl)ethyl)-1H-indol-7-yl)naphthalene-1-sulfonamide] |
| 226 to 227 °C | Cc1c(S(=O)(=O)Nc2ccc3[nH]cc(CCN(C)C)c3c2)sc2ccc(Cl)cc12 [Example 7c, N-[3-(2-dimethylaminoethyl)-1H-indol-5-yl]-5-chloro-3-methylbenzo[b]thiophene-2-sulphonamide] |
| 113 to 118 °C | CN(C)CCn1ccc2c(NS(=O)(=O)c3cc(Cl)cc(Cl)c3)cccc21 [Example 7d, N-[1-(2-dimethylaminoethyl)-1H-indole-4-yl]-3,5-dichlorobenzenesulfonamide] |
| 138 to 140 °C | CN(C)CCn1ccc2cc(NS(=O)(=O)c3ccc(Oc4ccccc4)cc3)ccc21 [Example 7e, N-[1-(2-dimethylaminoethyl)-1H-indole-5-yl]-4-phenoxybenzenesulfonamide] |
| 203 to 205 °C | CN(C)CCc1c[nH]c2ccc(NS(=O)(=O)c3cccc4ccccc34)cc12 [Example 8c, N-[3-(2-dimethylaminoethyl)-1H-indol-5-yl]naphthalene-1-sulphonamide] |
| 95 to 100 °C | CN(C)CCn1ccc2c(NS(=O)(=O)c3c(Cl)nc4sccn34)cccc21 [Example 8d, 6-chloro-N-[1-(2-dimethylaminoethyl)-1H-indol-4-yl]-imidazo[2,1-b]thiazole-5-sulfonamide] |
| 126 to 128 °C | Cc1ccc(S(=O)(=O)Nc2ccc3c(ccn3CCN(C)C)c2)cc1 [Example 8e, N-[1-(2-dimethylaminoethyl)-1H-indole-5-yl]-4-methylbenzenesulfonamide] |
| 150 to 159 °C | CN(C)CCn1ccc2ccc(NS(=O)(=O)c3cc(Cl)cc(Cl)c3)cc21 [Example 8f, N-[1-(2-Dimethylaminoethyl)-1H-indol-6-yl]-3,5-dichlorobenzenesulfonamide] |

The remaining lines, values behind:

| Compound | melting point |
| --- | --- |
| Cc1cccc2c1N(C1CCN(S(=O)(=O)c3cccc(Cl)c3Cl)CC1)C(=O)OC2 | 184 to 185 °C |
| Cl.O=C1c2ccccc2-c2cc(NC(=O)C(c3ccccc3)N3CCC(N4C(=O)OCc5ccccc54)CC3)ccc21 (stereo not drawn) | 247 to 249 °C |
| CN(C)CCc1c[nH]c2ccc(NS(=O)(=O)c3cccc4nsnc34)cc12 | 192 °C |
| CN(C)CCc1c[nH]c2ccc(NS(=O)(=O)c3ccc4c(Cl)cccc4c3)cc12 | 230 to 240 °C (dec.) |
| CN(C)CCc1c[nH]c2ccc(NS(=O)(=O)c3ccc(-c4ccccc4)cc3)cc12 | 184 to 186 °C |
| CCN(CC)CCc1c[nH]c2ccc(NS(=O)(=O)c3ccc4ccccc4c3)cc12 | 134 to 136 °C |
| CCCN(CCC)CCc1c[nH]c2ccc(NS(=O)(=O)c3cccc4ccccc34)cc12 | 76 to 80 °C |
| CCCCN(CCCC)CCc1c[nH]c2ccc(NS(=O)(=O)c3sc4ccc(Cl)cc4c3C)cc12 | 79 to 80 °C |
| CCCCN(CCCC)CCc1c[nH]c2ccc(NS(=O)(=O)c3cccc4ccccc34)cc12 | 111 to 113 °C |
| Cc1cccc2c1N(C1CCN(CC(=O)Nc3ccc4c(c3)-c3ccccc3C4=O)CC1)C(=O)OC2.Cl | 233 to 236 °C |
| CCN(CC)CCc1c[nH]c2ccc(NS(=O)(=O)c3c(Cl)nc4sccn34)cc12 | 197 to 198 °C |
| Cl.O=C(CN1CCC(N2C(=O)OCc3cc(Cl)ccc32)CC1)Nc1ccccc1 | 265 to 277 °C |
| Cl.N#Cc1ccc(NC(=O)CN2CCC(N3C(=O)OCc4ccccc43)CC2)cc1 | 268 to 282 °C |
| Cc1cccc2c1N(C1CCN(CC(=O)Nc3ccc(C(=O)c4ccccc4)cc3)CC1)C(=O)OC2.Cl | 217 °C |
| Cl.O=C(CN1CCC(N2C(=O)OCc3cc(Cl)ccc32)CC1)Nc1ccc(C(=O)c2ccccc2)cc1 | 256 to 259 °C |
| Cc1ccc2c(c1)COC(=O)N2C1CCN(CC(=O)Nc2ccc3c(c2)C(=O)c2ccccc2-3)CC1.Cl | 281 to 285 °C |
| Cl.O=C(CN1CCC(N2C(=O)OCc3ccccc32)CC1)Nc1cccc(C(=O)c2ccccc2)c1 | 214 to 218 °C |
| CCN(c1ccccc1)c1ccc(NC(=O)CN2CCC(N3C(=O)OCc4ccc(C)cc43)CC2)cc1 | 199 °C |
| O=C(CN1CCC(N2C(=O)OCc3cccc(Cl)c32)CC1)Nc1ccc2[nH]c3ccccc3c2c1 | 180 °C |
| O=C(CN1CCC(N2C(=O)OCc3ccccc32)CC1)Nc1ccc2c(c1)CCC2=O | 206 to 209 °C |
| CCN(CC)CCc1c[nH]c2ccc(NS(=O)(=O)c3cccc4ccccc34)cc12 (as salt: hydrochloride) | 255 to 257 °C |
| CCN(CC)CCc1c[nH]c2ccc(NS(=O)(=O)c3sc4ccc(Cl)cc4c3C)cc12 [Example 1c, N-[3-(2-diethylaminoethyl)-1H-indol-5-yl]-5-chloro-3-methylbenzo[b]thiophene-2-sulphonamide] | 170 to 173 °C |
| Cc1c(S(=O)(=O)Nc2cccc3c2ccn3CCN(C)C)sc2ccc(Cl)cc12 [Example 1d, N-[1-(2-dimethylaminoethyl)-1H-indole-4-yl]-5-chloro-3-methyl-benzo[b]thiophene-2-sulfonamide] | 78 to 80 °C |
| Cc1c(S(=O)(=O)Nc2ccc3c(ccn3CCN(C)C)c2)sc2ccc(Cl)cc12 [Example 1e, N-[1-(2-dimethylaminoethyl)-1H-indole-5-yl]-5-chloro-3-methylbenzo[b]thiophene-2-sulfonamide] | 71 to 73 °C |
| CN1CC=C(c2cn(S(=O)(=O)C3CCCCC3)c3ccc([N+](=O)[O-])cc23)CC1 [Example 1h, 1-Cyclohexanesulfonyl-3-(1-methyl-1,2,3,6-tetrahydropyridine-4-yl)-5-nitro-1H-indole] | 155 to 160 °C |
| CN(C)CCn1ccc2ccc(NS(=O)(=O)c3ccc4ccccc4c3)cc21 [Example 2f, N-[1-(2-Dimethylaminoethyl)-1H-indol-6-yl]-naphthalene-2-sulfonamide] | 140 to 143 °C |
| Cc1c(S(=O)(=O)Nc2cccc3ccn(CCN(C)C)c23)sc2ccc(Cl)cc12 [Example 2g, N-[1-(2-dimethylaminoethyl)-1H-indole-7-yl]-5-chloro-3-methylbenzo[b]thiophene-2-sulfonamide] | 57 to 65 °C |
| CN1CC=C(c2cn(S(=O)(=O)C3CCCCC3)c3ccc(Cl)cc23)CC1 [Example 2h, 5-Chloro-1-cyclohexanesulfonyl-3-(1-methyl-1,2,3,6-tetrahydropyridine-4-yl)-1H-indole] | 88 to 90 °C |

Source: patent publication US20070059364A1, “Active substance combination comprising a compound with npy receptor affinity and a compound with 5-ht6 receptor affinity” (Laboratorios Del Dr. Esteve S.A., priority 2003, published 2007)
